# Patent US5916915A, “Water-in-stable L-ascorbic acid derivative and a method for preparation thereof, and a skin-whitening cosmetic composition containing the same” (priority 1997, dated 1999)
# “Also recorded” adds a separate entry of the source.
# Experiments:
# [1] = Stability of AsA-APPA in pH 7 buffer at 50° C. (residual ratio by UV absorbance); type: physicochemical
# Method: L-Ascorbic acid and AsA-APPA produced in Preparation Ex. 2 were dissolved in buffer solutions of pH 7 to concentrations of 50 μM, respectively, and then maintained in a thermostat of 50° C. At constant intervals, UV absorbances were measured at 259 nm for AsA-APPA and at 266 nm for L-ascorbic acid, to evaluate the stabilities of the test samples as residual ratio(%).
# [2] = Stability in an aqueous base: precipitation and discoloration; type: physicochemical; parameters: key: -: No precipitation; +: Slight precipitation; ++: Some precipitation; +++: Severe precipitation; conditions: 3 g in 100 ml water
# Method: Each 3 g of compounds of Preparation Ex. 3 and Ex. 6 and L-ascorbic acid 2-phosphate magnesium was dissolved in 100 ml of distilled water, and then maintained in a thermostat of 50° C. for 30 minutes.
# Colorless or pale-yellow
# +++ Severe precipitation
# [3] = Acute Dermal Toxicity Test; type: in vivo, ICR mice; conditions: mouse, in vivo, topical or ocular, acute dermal, ICR mice, Litchfield-Wilcoxon's method; read-out: LD50 (lethal dose)
# Method: (§1) 4 ml/kg of AsA-APPA of Preparation Ex. 2 was diluted with physiological saline to give 50% of test sample. This test sample was percutaneously administrated into the ten(10) of ICR mice(five males and five females) weighing 20~33 g (administrated amount of AsA-APPA: 2 g/kgweight). As a control, 4 ml/kg of physiological saline was percutaneously administrated into the ten(10) of ICR mice(five males and five females) weighing 20~33 g (administrated amount of AsA-APPA: 0 g/kgweight).
# (§2) Before about 24 hours, the back of each mouce was depilated in a size of 1.5×1.5 cm^2. Then, each depilated site was covered with a gauze of 1×1 cm^2 applied with one of the test and control samples, and fixed using an non-irritative tape, for 24 hours.
# (§3) At that day, general appearance was observed every hour for 6 hours. And, from the next day to 14 days, every day, were observed general appearance(clinical symptoms), toxic symptoms, death and the like. Further, change of weights was measured at 1, 3, 7 and 14 days.
# (§4) Any of the mice dead during observation period were immediately subjected to autopsy, and the survival mice were subjected to autopsy after observation period.
# ICR mice [4] = test: Acute Dermal Toxicity Test; type: in vivo
# Method: as §1, §2, §3, §4
# [5] = tested on: skin of New Zealand White male rabbits; test: Primary Skin Irritation Test; type: in vivo; conditions: rabbit
# Method: Test was carried out for twelve(12) of New Zealand White male rabbits whose backs were depilated before 24 hours. And, 0.1 ml of AsA-APPA of Preparation Ex. 2 was diluted with physiological saline to give 50% of test sample.
# The test sample was applied to two sites (2.5 cm×2.5 cm) of the right back (amount of AsA-APPA per site: 0.5 ml). As a control, two sites (2.5 cm×2.5 cm) of the left back were treated with 1.0 ml of physiological saline. Each tested site was covered with a gauze, which was fixed using an non-irritative tape. 24 Hours later, the tested sites were washed with physiological saline.
# fibroblast = test: Proliferation of fibroblast (MTT method); type: cell-based; conditions: as low as, DMEM
# Method: The skin obtained from new epidermal tissue was treated with Type 1 collagenase to remove epidermis. The obtained fibroblast was cultured on Dulbecco's Modified Eagle's Media(DMEM).
# Amount of fibroblast was measured by way of MTT method.
# Acute Oral Toxicity Test = type: in vivo, ICR mice; conditions: mouse, in vivo, po, acute oral, ICR mice, Litchfield-Wilcoxon's method; read-out: LD50 (lethal dose)
# Method: as §1, with “10 ml/kg” for “4 ml/kg”, “was orally” for “was percutaneously”, “AsA-APPA: 5” for “AsA-APPA: 2”, “control, 10” for “control, 4”
# (§5) At that day, general appearance was observed every hour for 6 hours. And, from the next day to 14 days, every day, were observed general appearance(clinical symptoms), toxic symptoms, death and the like. Further, change of weight was measured at 1, 3, 7 and 14 days.
# as §4
# ICR mice [6] = test: Acute Oral Toxicity Test; type: in vivo
# Method: as §1, with “10 ml/kg” for “4 ml/kg”, “was orally” for “was percutaneously”, “AsA-APPA: 5” for “AsA-APPA: 2”, “control, 10” for “control, 4”
# as §5, §4
# skin of healthy females [7] = test: Repeat Insult Human Patch Test; type: in vivo
# Method: Test was carried out for twenty(20) of healthy females aging 20~30 years according to CTFA Guideline(The Cosmetic, Toiletry and Fragrance Association. Inc. Washington, D.C., 20023, 1991).
# The back of the subjected was washed with 70% of propanol and dried, and then, applied with a finn chamber containing 20 μl of patch base incorporating 10% of AsA-APPA of Preparation Ex. 2. Applications were repeated every 24 hours for 3 weeks (Induction Period). After about 2 weeks, Challenge Insult Patch was carried out. At this step, the sites tested during the induction period and new sites were applied with the patches for 48 hours. […] And, skin irritation was evaluated according to ICDRG(International Contact Dermatitis Research Group)'s criterion.
# skin of healthy females [8] = test: Human Patch Test; type: in vivo
# Method: Test was carried out for thirty(30) of healthy females aging 20~30 years according to CTFA Guideline(The Cosmetic, Toiletry and Fragrance Association. Inc. Washington, D.C., 20023, 1991).
# The back of the subjected was washed with 70% of ethanol and dried, and then, applied with a finn chamber containing 20 μl of patch base incorporating 10% of AsA-APPA of Preparation Ex. 2. The finn chamber was fixed to the tested site using a micropore tape. 24 hours later, the tape and the chamber were removed, and the tested site was marked with marking pen. After 24 hours or 48 hours, skin responses of the tested sites were observed and skin irritation were evaluated according to ICDRG(International Contact Dermatitis Research Group)'s criterion.
# *Average Response = Grade of the sample/4(Maximum grade) × 30(Total
# skin of Guinea pigs = test: Skin Sensitization Test (Guinea Pig Maximization test); type: in vivo, Guinea pigs (Hartley Albino Guinea Pig)
# Method: Test was carried out for six(6)(three males and three females) of Guinea pigs(Hartley Albino Guinea Pig) weighing 300~360 g according to Maggnusson and Kligman's procedure (Guinea Pig Maximization test).
# In order to determine the concentrations of the test samples to be applied in Induction test for light irritation and Challenge test for no irritation, for three(3) of Guinea pigs for each test, primary irritations were taken with 6.25%, 12.5% and 25.0% of the test samples, respectively. For each animal, each site (2.5×2.5 cm) of right and left of the back was treated with three concentrations of the test samples in an amount of 0.5 ml/site of AsA-APPA, and then covered with a gauze, which was fixed using an non-irritative tape, for 24 hours. Next, 0.1 ml of 25% of AsA-APPA was intradermally injected to each of two pigs(one male and one female) using 26-gauge 1/2-inched needle. 7 Days later, the same sites were depilated and pretreated with 10% of SLS in petrolatum. Then, each tested site was treated with 0.5 ml/site of AsA-APPA, and then covered with a gauze, which was fixed using an non-irritative tape, for 48 hours. 2 Weeks later, the left back of the depilated pig was treated with the test sample and the right back was treated with physiological saline. 24 Hours later, the tested sites were washed with physiological saline.
# As a control, test was carried out using physiological saline, instead of the test sample, in the same procedure.
# [9] = tested on: eye of New Zealand White rabbits; test: Eye Irritation Test; type: in vivo; conditions: rabbit
# Method: Test was carried out using the nine(9) of New Zealand White rabbits.
# 0.1 ml of AsA-APPA of Preparation Ex. 2 was diluted with physiological saline to give 10% of test sample. This test sample was dropped onto the right eye of each rabbit, taking the left eye as a control. After 20~30 seconds, only three(3) rabbits of them were washed sufficiently with the sterilized saline.
# [10] = 10% AsA-APPA, text and Table 5, unit not given
smiles,measurement,setting,value
O=C1O[C@H]([C@@H](O)CO)C(O)=C1O [L-ascorbic acid],time to decomposition,"[1]; about, neutral aqueous solution, 50° C.",≤ 1 h
"O=C1O[C@H]([C@@H](O)CO)C(O)=C1OP(=O)([O-])[O-].[Mg+2] [compound 1, L-ascorbic acid 2-phosphate magnesium, reference compound]",Precipitation,[2]; day 1,-
same,Precipitation,[2]; day 3,+
same,Precipitation,[2]; day 5,+
same,Precipitation,[2]; day 7,++
same,Precipitation,[2]; day 9,++
same,Precipitation,[2]; day 11,++
same,Precipitation,[2]; day 13,+++
same,Precipitation,[2]; day 15,+++
same,Precipitation,[2]; day 30,+++
NCCCOP(=O)(O)OC1=C(O)[C@@H]([C@@H](O)CO)OC1=O [Prep. Ex. 3],Precipitation,[2]; day 1,-
same,Precipitation,[2]; day 3,-
same,Precipitation,[2]; day 5,-
same,Precipitation,[2]; day 7,-
same,Precipitation,[2]; day 9,-
same,Precipitation,[2]; day 11,-
same,Precipitation,[2]; day 13,-
same,Precipitation,[2]; day 15,-
same,Precipitation,[2]; day 30,-
"NCCCOP(=O)(O)OC1=C(O)[C@@H]([C@@H](O)CO)OC1=O [AsA-APPA, 2-(3-aminopropanephosphoric acid)-L-ascorbate]",LD50 at 336 h,[3],2000 mg/kg
same,Evaluation,ICR mice [4]; Acute dermal toxicity test,Innoxious
same,LD50 (lethal dose),"ICR mice [4]; acute dermal, ICR mice, Litchfield-Wilcoxon's method, 20160 min",> 2000 mg/kg
same,autopsy findings,"ICR mice [4]; percutaneous, 2 g/kg",no abnormal symptom was observed
same,weight changes in comparison to the control,"ICR mice [4]; percutaneous, 2 g/kg, 1, 3, 7 and 14 days",no significant difference
same,death,"ICR mice [4]; percutaneous, 2 g/kg, 14 days",no dead mice
same,Evaluation of primary skin irritation,[5],non-irritative or very low-irritative
same,skin abnormality such as erythema and edema,[5]; 24 or 72 hours after removing the patches,no skin abnormality such as erythema and edema was observed
same,Draize's PII (Primary Irritation Index),[5]; due to erythema,0.13
same,concentration showing effective fibroblast proliferation,fibroblast,10 mM
same,LD50 at 336 h,Acute Oral Toxicity Test,5000 mg/kg
same,Evaluation,ICR mice [6]; Acute oral toxicity test,Innoxious
same,LD50 (lethal dose),"ICR mice [6]; acute oral, ICR mice, Litchfield-Wilcoxon's method, 20160 min",> 5000 mg/kg
same,autopsy findings,"ICR mice [6]; oral, 5 g/kg",no abnormal symptom was observed
same,weight changes in comparison to the control,"ICR mice [6]; oral, 5 g/kg, 1, 3, 7 and 14 days",no significant difference
same,death,"ICR mice [6]; oral, 5 g/kg, 14 days",no dead mice
same,Evaluation of repeat insult human patch test,skin of healthy females [7]; 10% AsA-APPA,No irritative
same,repeat irritation or sensitive irritation,skin of healthy females [7]; 10% AsA-APPA,no repeat irritation or no sensitive irritation was observed
same,"Average response, challenge period","skin of healthy females [7]; 10% AsA-APPA, unit not given",0
same,"Average response, induction period",skin of healthy females [7]; [10],0.14
same,"Average response, challenge period","skin of healthy females [7]; n = 20, 10% AsA-APPA, Table 4",0%
same,"Average response, induction period","skin of healthy females [7]; n = 20, 10% AsA-APPA, Table 4",0.14%
same,Induction Period response,"skin of healthy females [7]; week 1, 10% AsA-APPA",1
same,Evaluation of human patch test,skin of healthy females [8]; 10% AsA-APPA,"primary irritative response, except for 1% of erythema, was hardly observed; also recorded: No irritative"
same,Average response,skin of healthy females [8]; [10],0.42
same,Response,"skin of healthy females [8]; 24 hr., N = 30, 10% AsA-APPA, erythema",1%
same,irritation after 48 hours,"skin of healthy females [8]; 48 hours, 10% AsA-APPA",all the irritation fade away
same,Response,"skin of healthy females [8]; 48 hr., N = 30, 10% AsA-APPA",0%
same,Average response,"skin of healthy females [8]; N = 30, 10% AsA-APPA, Table 3",0.42%
same,stability in neutral aqueous solution,"[1]; pH 7, 50° C.",very stable
same,"remaining at 0.5 h, 50 µM","[1]; ph 7 buffer, 30 min., pH 7, 50 μM, 50° C.",100%
same,"remaining at 1 h, 50 µM","[1]; ph 7 buffer, 1 hr., pH 7, 50 μM, 50° C.",100%
same,"remaining at 3 h, 50 µM","[1]; ph 7 buffer, 3 hr., pH 7, 50 μM, 50° C.",100%
same,"remaining at 6 h, 50 µM","[1]; ph 7 buffer, 6 hr., pH 7, 50 μM, 50° C.",100%
same,"remaining at 24 h, 50 µM","[1]; ph 7 buffer, 24 hr., pH 7, 50 μM, 50° C.",99.1%
same,"remaining at 144 h, 50 µM","[1]; ph 7 buffer, 6 days, pH 7, 50 μM, 50° C.",95.5%
same,"remaining at 240 h, 50 µM","[1]; ph 7 buffer, 10 days, pH 7, 50 μM, 50° C.",93.5%
same,Evaluation of skin sensitization,skin of Guinea pigs; Guinea pig,very safe to the skin
same,skin abnormality such as erythema and edema,"skin of Guinea pigs; Guinea pig, 24, 48 and 72 hours after removing the patches",no skin abnormality such as erythema and edema was observed
same,Kligman's grade,"skin of Guinea pigs; Guinea pig, Kligman's criterion",1
same,Evaluation of eye irritation,[9],No irritative
same,"eye irritation on cornea, iris and conjunctiva","[9]; after 24 hours or 48 hours, 10% test sample","no eye irritation on cornea, iris and conjunctiva was observed"
same,Irritation rate of eye mucos (M.O.I),[9]; washed and non-washed cases,0
